{
  "source": "patent US5691310A",
  "about": "“Methods of treatment using proANF peptides” (priority 1995, dated 1997)",
  "key": {"healthy human subjects": {"system": "healthy human subjects", "experiment": "infusion into healthy human subjects", "format": "in vivo", "conditions": "healthy humans", "method": "Infusion of these peptides into healthy human subjects was performed as follows: Human pro-ANF 1-30, pro-ANF 31-67, and pro-ANF 79-98, and hANF (i.e., pro-ANF […], were synthesized by Peninsula Laboratories (Belmont, Calif.). High pressure liquid chromatography (HPLC) analysis was performed on a sample of each of the four peptides to ensure purity. The peptides were dissolved in a sterile 0.9% saline solution to a concentration of 100 μg/ml and dispensed in 2 and 5 ml aliquots into sealed sterile vials. At the time of dispensing, randomly selected vials were tested for pyrogens and sterility. Prior to labeling the vials, the actual peptide content of the dispensed solution were determined by direct radioimmunoassay to account for any possible absorption of the respective peptides to the walls of the vials. All vials were then stored at -80° C. until thawed for individual study.\nNormal healthy subjects were chosen on the basis of age (between 20 and 50 years), physical examination and biochemical screenings. The subjects consumed their normal diets prior to testing. The subjects fasted overnight and were tested in the morning in the seated position. Intravenous catheters were placed bilaterally for the administration of pro-hANF 1-30, pro-hANF 31-67, pro-hANF 79-98 and hANF [pro-hANF 99-126] and for blood sampling. After completion of a 45-minute equilibration period, there were three 60-minute phases of the study: baseline, experimental infusion (60 minutes) and recovery (3 hours). The baseline phase consisted of two 30 minute urine collection periods, the experimental phase consisted of three 20 minute urine and plasma collection periods, and the recovery phase consisted of two 30 minute urine and plasma collection periods each hour for three hours post-infusion. Urine output was replaced on a milliliter per milliliter basis throughout the study by administering oral water or orange juice. Urine samples were obtained by voiding at the designated collection periods.\nThe 36 subjects were divided into 6 groups. One group (i.e., the control group) received a placebo infusion of 0.9% sodium chloride during the experimental infusion phase. […] The four remaining groups of six subjects each received human pro-hANF 1-30, pro-hANF 31-67, pro-hANF 79-98 and hANF. The four groups received the peptides by continuous infusion at the rate of 0.1 μg/kg per minute. The volume administered per hour during the experimental infusion phase was 10 ml for all four peptides and the placebo. All infusions were given by a constant-rate infusion pump, with the final concentrations of prohANFs adjusted for the subjects' body weight. The subjects heart rate and cuff blood pressure were taken at 5 minute intervals throughout the study. The excreted urine was analyzed for sodium concentration."}, "[1]": {"system": "rats who have acute renal failure", "experiment": "blood urea nitrogen in rats with acute renal failure", "format": "in vivo, rat", "conditions": "over three days", "description": "FIG. 6. ProANF 31-67 (i.e., vessel dilator) prevents the rise in blood urea nitrogen (BUN) in rats who have acute renal failure."}, "[2]": {"experiment": "overcoming the negative ionotropic effect of Verapamil"}, "[3]": {"system": "renal medullary Na+-K+-ATPase", "experiment": "inhibition of renal medullary Na+-K+-ATPase activity", "format": "biochemical", "conditions": "10^-11 M"}, "Munich-Wistar rats": {"system": "Munich-Wistar rats", "experiment": "rat clearance model (diuresis and salt excretion)", "format": "in vivo", "method": "The same three peptides and ANF from Example I are tested using the rat clearance model. Six control rats and six experimental Munich-Wistar rats, each weighing 150-200 grams, are used for each peptide, with catheters being placed in both jugular veins and in the femoral artery. The ureters are cannulated for simultaneous urine collections with femoral artery blood collections.\nAfter inserting the catheters, a stabilization of one hour is allowed. A 10 μg/kg bolus of each of the respective human sequences of the peptides is given via the jugular vein to six experimental rats followed by a sustaining infusion of 0.1 μg/kg/min for 60 minutes. Blood and urine samples are collected at 20 minute intervals during this 60 minute infusion. In both the control and experimental animals, hematocrits and plasma sodium values remained at the same levels pre- and post-infusion while blood pressure decreased with each of these peptides (see Attachment B)."}, "[4]": {"system": "human subjects with class II New York Heart Association congestive heart failure", "experiment": "infusion into human subjects with congestive heart failure", "format": "in vivo", "method": "Human proANF's 1-30, 31-67, 79-98, and 99-126 (i.e., ANF) were infused into human subjects with class II New York Heart Association congestive heart failure. An identical protocol to that used in example V where these peptides were infused into healthy human subjects was utilized. (See Attachment C for a detailed description of this protocol). The human subjects with congestive heart failure received an identical dose (0.1 μg/kg body wt/minute for 60 minutes) that the healthy human subjects received."}, "[5]": {"system": "particulate guanylate cyclase", "experiment": "cyclic GMP / particulate guanylate cyclase activation in cultured smooth muscle cells and porcine aorta", "format": "cell-based", "conditions": "cultured smooth muscle cells"}, "[6]": {"system": "particulate guanylate cyclase", "experiment": "particulate guanylate cyclase activity in the kidney", "format": "biochemical", "conditions": "1 μM; whole kidney homogenates, renal cortical and medullary membranes, isolated distal nephron", "procedure": "Testing is also carried out to determine biologic effects of these peptides by measuring their effects on particulate guanylate activity in the kidney."}, "porcine aorta": {"system": "porcine aorta", "experiment": "vasodilation of porcine aortic strips preconstricted with 0.3 micromolar phenylephrine", "set-up": "species or system pig", "method": "30 Kg pigs are sacrificed, and aortic strips are harvested. The strips are attached to F-60 transducer (Narco-BioSystems, Houston, Tex.) and attached to a physiography (Narco-BioSystems) while being submerged in a muscle tissue bath comprising a Krebs Ringer solution at 37° C., with 95% 02 -5% CO2, bubbled through the bath. Percentage vasodilation is measured versus time (as reported in FIG. 1) after preconstriction with 0.3 micromolar phenylephrine."}, "[7]": {"conditions": "congestive heart failure, 0.1 μg/kg body wt/minute"}},
  "data": [
    {"substance": "H-EVVPPQVLSEPNEEAGAALSPLPEVPPWTGEVSPAQR-OH [proANF 31-67, H-Glu-Val-Val-Pro-Pro-Gln-Val-Leu-Ser-Glu-Pro-Asn-Glu-Glu-Ala-Gly-Ala-Ala- Leu-Ser-Pro-Leu-Pro-Glu-Val-Pro-Pro-Trp-Thr-Gly-Glu-Val-Ser-Pro-Ala-Gln-Arg-OH]", "values": [
      {"measurement": "increase of urine flow", "setting": "healthy human subjects", "value": "4-12 fold"},
      {"measurement": "urine volume / urine flow (in words)", "setting": "healthy human subjects; 100 ng/kg body wt per minute for 1 hour i.v.", "value": "increase in urine volume"},
      {"measurement": "sodium excretion compared to baseline (in words)", "setting": "healthy human subjects; 100 ng/kg body wt per minute for 60 minutes", "value": "significantly (P<0.05) increased sodium excretion"},
      {"measurement": "systolic and diastolic blood pressures", "setting": "healthy human subjects; 100 ng/kg/min i.v. for 60 minutes", "value": "decreasing systolic and diastolic blood pressures"},
      {"measurement": "rise in blood urea nitrogen (BUN)", "setting": "[1]", "value": "completely blocked the increase in BUN"},
      {"measurement": "negative ionotropic (slowing heartbeat) effect of Verapamil", "setting": "[2]", "value": "can overcome the negative ionotropic (slowing heartbeat) effect"},
      {"measurement": "inhibition of renal medullary Na+-K+-ATPase activity", "setting": "[3]", "value": "Inhibition of renal medullary Na+-K+-ATPase activity"},
      {"measurement": "UNa V, urinary sodium excretion rate", "setting": "Munich-Wistar rats; period A, control period (before peptide)", "value": "144.08 ± 56.75 μeq-min^-1 -g kidney wt^-1"},
      {"measurement": "UNa V, urinary sodium excretion rate", "setting": "Munich-Wistar rats; period B, 1st 60min experimental period, 10 μg/kg bolus then 0.1 μg/kg/min", "value": "1,057.68 ± 371.69 μeq-min^-1 -g kidney wt^-1"},
      {"measurement": "UNa V, urinary sodium excretion rate", "setting": "Munich-Wistar rats; period C, 2nd 60min experimental period", "value": "1,077.63 ± 306.10 μeq-min^-1 -g kidney wt^-1"},
      {"measurement": "urine output at 3 hours after stopping the infusion relative to pre-infusion values", "setting": "[4]; congestive heart failure", "value": 10, "unit": "fold"},
      {"measurement": "diuretic properties (in words)", "setting": "[4]; congestive heart failure patients", "value": "stronger diuretic properties than ANF"},
      {"measurement": "urine output in 20 minutes of infusion", "setting": "[4]; [7]", "value": "doubled"},
      {"measurement": "urine output increase at the end of the 60 minute infusion", "setting": "[4]; [7]", "value": 7, "unit": "fold"},
      {"measurement": "urine output per 30 minute period", "setting": "[4]; congestive heart failure, 3 hours after stopping the infusion (pre-infusion 30 mls)", "value": 320, "unit": "mls"},
      {"measurement": "increase of sodium excretion", "setting": "[4]; human subjects with congestive heart failure", "value": "three-to-eight"},
      {"measurement": "time after stopping the infusion for which diuresis / urine flow is still significantly (P<0.01) elevated", "setting": "[4]; humans with congestive heart failure", "value": "at least 3 hours"},
      {"measurement": "cyclic GMP levels", "setting": "[5]", "value": "increase cyclic GMP levels"},
      {"measurement": "particulate guanylate cyclase activity", "setting": "[6]", "value": "enhance particulate guanylate cyclase"},
      {"measurement": "increase in cyclic GMP levels over baseline levels", "setting": "porcine aorta; associated with vasodilation of porcine aorta", "value": "four-to-five"},
      {"measurement": "vasodilation", "setting": "porcine aorta; porcine aorta", "value": "cause vasodilation"}
    ]}
  ]
}
